Columns and labels:
Format in all cases: in vivo
[1] = test system: Barnyard grass; assay: pre-emergent herbicidal activity test
Description: (§1) Table II summarizes results of tests conducted to determine the pre-emergent as well as the post-emergent herbicidal activity of the compounds. The pre-emergent test was conducted as follows:
(§2) A good grade of top soil was placed in aluminum pans and compacted to a depth of three-eighths to one-half inch from the top of the pan. On the top of the soil was placed a predetermined number of seeds or vegetative propagules of various plant species. The soil required to level fill the pans after seeding or adding vegetative propagules was weighed into a pan. A known amount of the active ingredient applied in a solvent or as a wettable powder and the soil were thoroughly mixed, and used as a cover layer for prepared pans. After treatment the pans were moved into a greenhouse bench where they were watered from below as needed to give adequate moisture for germination and growth.
(§3) A herbicial rating code was used to signify the extent of phytotoxicity of each species. The rating are defined as follows: […]

[2] = test system: Bromus tectorum; assay: pre-emergent herbicidal activity test
Description: as §1, §2, §3

[3] = test system: Canada Thistle; assay: pre-emergent herbicidal activity test
Description: as §1, §2, §3

[4] = test system: Cocklebur; assay: pre-emergent herbicidal activity test
Description: as §1, §2, §3

[5] = test system: Johnsongrass; assay: pre-emergent herbicidal activity test
Description: as §1, §2, §3

[6] = test system: Lambsquarter; assay: pre-emergent herbicidal activity test
Description: as §1, §2, §3

[7] = test system: Morningglory; assay: pre-emergent herbicidal activity test
Description: as §1, §2, §3

[8] = test system: Nutsedge; assay: pre-emergent herbicidal activity test
Description: as §1, §2, §3

[9] = test system: Quackgrass; assay: pre-emergent herbicidal activity test
Description: as §1, §2, §3

[10] = test system: Smartweed; assay: pre-emergent herbicidal activity test
Description: as §1, §2, §3

[11] = test system: Velvetleaf; assay: pre-emergent herbicidal activity test
Description: as §1, §2, §3

[12] = test system: Barnyard grass; assay: post-emergent herbicidal activity test
Description: (§4) The post-emergent tests were conducted as follows. The active ingredients are applied in spray form to two or three-week old specimens of various plant species. The spray, a solution or wettable powder suspension containing the appropriate rate of active ingredient to give the desired test rate and a surfactant, is applied to the plants. The treated plants are placed in a greenhouse and unless otherwise noted approximately four weeks later the effects are observed and recorded.

[13] = test system: Bromus tectorum; assay: post-emergent herbicidal activity test
Description: as §4

[14] = test system: Canada Thistle; assay: post-emergent herbicidal activity test
Description: as §4

[15] = test system: Cocklebur; assay: post-emergent herbicidal activity test
Description: as §4

[16] = test system: Johnsongrass; assay: post-emergent herbicidal activity test
Description: as §4

[17] = test system: Lambsquarter; assay: post-emergent herbicidal activity test
Description: as §4

[18] = test system: Morningglory; assay: post-emergent herbicidal activity test
Description: as §4

[19] = test system: Nutsedge; assay: post-emergent herbicidal activity test
Description: as §4

[20] = test system: Quackgrass; assay: post-emergent herbicidal activity test
Description: as §4

[21] = test system: Smartweed; assay: post-emergent herbicidal activity test
Description: as §4

[22] = test system: Velvetleaf; assay: post-emergent herbicidal activity test
Description: as §4

[23] = *11.2 Kg/Ha, observed approximately 14 days after treatment
[24] = 11.2 Kg/Ha, approximately 28 days after seeding and treating
[25] = 11.2 Kg/Ha, approximately four weeks later
Note: ranges in brackets are in %.

## C=C(Cl)COC(=O)c1cn(C)nc1-c1cccc(C(F)(F)F)c1 [Example 19]
[1]; [23]
  Pre-Emergent herbicidal rating, K Barnyard grass: 2 (50-74)
[2]; [23]
  Pre-Emergent herbicidal rating, J Bromus tectorum: 1 (25-49)
[3]; [23]
  Pre-Emergent herbicidal rating, A Canada Thistle: 1 (25-49)
[4]; [23]
  Pre-Emergent herbicidal rating, B Cocklebur: 0 (0-24)
[5]; [23]
  Pre-Emergent herbicidal rating, I Johnsongrass: 1 (25-49)
[6]; [23]
  Pre-Emergent herbicidal rating, E Lambsquarter: 3 (75-100)
[7]; [23]
  Pre-Emergent herbicidal rating, D Morningglory: 1 (25-49)
[8]; [23]
  Pre-Emergent herbicidal rating, G Nutsedge: 1 (25-49)
[9]; [23]
  Pre-Emergent herbicidal rating, H Quackgrass: 1 (25-49)
[10]; [23]
  Pre-Emergent herbicidal rating, F Smartweed: 2 (50-74)
[11]; [23]
  Pre-Emergent herbicidal rating, C Velvetleaf: 1 (25-49)
[12]; [23]
  Post-Emergent herbicidal rating, K Barnyard grass: 1 (25-49)
[13]; [23]
  Post-Emergent herbicidal rating, J Bromus tectorum: 0 (0-24)
[14]; [23]
  Post-Emergent herbicidal rating, A Canada Thistle: 1 (25-49)
[15]; [23]
  Post-Emergent herbicidal rating, B Cocklebur: 1 (25-49)
[16]; [23]
  Post-Emergent herbicidal rating, I Johnsongrass: 1 (25-49)
[17]; [23]
  Post-Emergent herbicidal rating, E Lambsquarter: 1 (25-49)
[18]; [23]
  Post-Emergent herbicidal rating, D Morningglory: 1 (25-49)
[19]; [23]
  Post-Emergent herbicidal rating, G Nutsedge: 0 (0-24)
[20]; [23]
  Post-Emergent herbicidal rating, H Quackgrass: 0 (0-24)
[21]; [23]
  Post-Emergent herbicidal rating, F Smartweed: 1 (25-49)
[22]; [23]
  Post-Emergent herbicidal rating, C Velvetleaf: 1 (25-49)

## CCOC(=O)c1cn(C)nc1-c1cc(C(F)(F)F)cc(C(F)(F)F)c1 [Example 10]
[1]; [24]
  Pre-Emergent herbicidal rating, K Barnyard grass: 2 (50-74)
[1]; [23]
  Pre-Emergent herbicidal rating, K Barnyard grass: 3 (75-100)
[2]; [24]
  Pre-Emergent herbicidal rating, J Bromus tectorum: 1 (25-49)
[2]; [23]
  Pre-Emergent herbicidal rating, J Bromus tectorum: 1 (25-49)
[3]; [24]
  Pre-Emergent herbicidal rating, A Canada Thistle: 0 (0-24)
[3]; [23]
  Pre-Emergent herbicidal rating, A Canada Thistle: 1 (25-49)
[4]; [24]
  Pre-Emergent herbicidal rating, B Cocklebur: 0 (0-24)
[4]; [23]
  Pre-Emergent herbicidal rating, B Cocklebur: 0 (0-24)
[5]; [24]
  Pre-Emergent herbicidal rating, I Johnsongrass: 0 (0-24)
[5]; [23]
  Pre-Emergent herbicidal rating, I Johnsongrass: 0 (0-24)
[6]; [24]
  Pre-Emergent herbicidal rating, E Lambsquarter: 3 (75-100)
[6]; [23]
  Pre-Emergent herbicidal rating, E Lambsquarter: 3 (75-100)
[7]; [24]
  Pre-Emergent herbicidal rating, D Morningglory: 0 (0-24)
[7]; [23]
  Pre-Emergent herbicidal rating, D Morningglory: 1 (25-49)
[8]; [24]
  Pre-Emergent herbicidal rating, G Nutsedge: 0 (0-24)
[8]; [23]
  Pre-Emergent herbicidal rating, G Nutsedge: 0 (0-24)
[9]; [24]
  Pre-Emergent herbicidal rating, H Quackgrass: 0 (0-24)
[9]; [23]
  Pre-Emergent herbicidal rating, H Quackgrass: 0 (0-24)
[10]; [24]
  Pre-Emergent herbicidal rating, F Smartweed: 0 (0-24)
[10]; [23]
  Pre-Emergent herbicidal rating, F Smartweed: 1 (25-49)
[11]; [24]
  Pre-Emergent herbicidal rating, C Velvetleaf: 0 (0-24)
[11]; [23]
  Pre-Emergent herbicidal rating, C Velvetleaf: 1 (25-49)
[12]; [25]
  Post-Emergent herbicidal rating, K Barnyard grass: 1 (25-49)
[12]; [23]
  Post-Emergent herbicidal rating, K Barnyard grass: 0 (0-24)
[13]; [25]
  Post-Emergent herbicidal rating, J Bromus tectorum: 0 (0-24)
[13]; [23]
  Post-Emergent herbicidal rating, J Bromus tectorum: 0 (0-24)
[14]; [25]
  Post-Emergent herbicidal rating, A Canada Thistle: 1 (25-49)
[14]; [23]
  Post-Emergent herbicidal rating, A Canada Thistle: 2 (50-74)
[15]; [25]
  Post-Emergent herbicidal rating, B Cocklebur: 2 (50-74)
[15]; [23]
  Post-Emergent herbicidal rating, B Cocklebur: 2 (50-74)
[16]; [25]
  Post-Emergent herbicidal rating, I Johnsongrass: 0 (0-24)
[16]; [23]
  Post-Emergent herbicidal rating, I Johnsongrass: 0 (0-24)
[17]; [25]
  Post-Emergent herbicidal rating, E Lambsquarter: 2 (50-74)
[17]; [23]
  Post-Emergent herbicidal rating, E Lambsquarter: 1 (25-49)
[18]; [25]
  Post-Emergent herbicidal rating, D Morningglory: 2 (50-74)
[18]; [23]
  Post-Emergent herbicidal rating, D Morningglory: 2 (50-74)
[19]; [25]
  Post-Emergent herbicidal rating, G Nutsedge: 0 (0-24)
[19]; [23]
  Post-Emergent herbicidal rating, G Nutsedge: 0 (0-24)
[20]; [25]
  Post-Emergent herbicidal rating, H Quackgrass: 0 (0-24)
[20]; [23]
  Post-Emergent herbicidal rating, H Quackgrass: 0 (0-24)
[21]; [25]
  Post-Emergent herbicidal rating, F Smartweed: 0 (0-24)
[21]; [23]
  Post-Emergent herbicidal rating, F Smartweed: 1 (25-49)
[22]; [25]
  Post-Emergent herbicidal rating, C Velvetleaf: 0 (0-24)
[22]; [23]
  Post-Emergent herbicidal rating, C Velvetleaf: 1 (25-49)

## CCCCOC(=O)c1cn(C)nc1-c1cccc(C(F)(F)F)c1 [Example 30]
[1]; [24]
  Pre-Emergent herbicidal rating, K Barnyard grass: 3 (75-100)
[2]; [24]
  Pre-Emergent herbicidal rating, J Bromus tectorum: 2 (50-74)
[3]; [24]
  Pre-Emergent herbicidal rating, A Canada Thistle: 2 (50-74)
[4]; [24]
  Pre-Emergent herbicidal rating, B Cocklebur: 0 (0-24)
[5]; [24]
  Pre-Emergent herbicidal rating, I Johnsongrass: 0 (0-24)
[6]; [24]
  Pre-Emergent herbicidal rating, E Lambsquarter: 3 (75-100)
[7]; [24]
  Pre-Emergent herbicidal rating, D Morningglory: 0 (0-24)
[8]; [24]
  Pre-Emergent herbicidal rating, G Nutsedge: 0 (0-24)
[9]; [24]
  Pre-Emergent herbicidal rating, H Quackgrass: 0 (0-24)
[10]; [24]
  Pre-Emergent herbicidal rating, F Smartweed: 3 (75-100)
[11]; [24]
  Pre-Emergent herbicidal rating, C Velvetleaf: 1 (25-49)
[12]; [25]
  Post-Emergent herbicidal rating, K Barnyard grass: 1 (25-49)
[13]; [25]
  Post-Emergent herbicidal rating, J Bromus tectorum: 1 (25-49)
[14]; [25]
  Post-Emergent herbicidal rating, A Canada Thistle: 0 (0-24)
[15]; [25]
  Post-Emergent herbicidal rating, B Cocklebur: 1 (25-49)
[16]; [25]
  Post-Emergent herbicidal rating, I Johnsongrass: 1 (25-49)
[17]; [25]
  Post-Emergent herbicidal rating, E Lambsquarter: 3 (75-99)
[18]; [25]
  Post-Emergent herbicidal rating, D Morningglory: 1 (25-49)
[19]; [25]
  Post-Emergent herbicidal rating, G Nutsedge: 0 (0-24)
[20]; [25]
  Post-Emergent herbicidal rating, H Quackgrass: 0 (0-24)
[21]; [25]
  Post-Emergent herbicidal rating, F Smartweed: 0 (0-24)
[22]; [25]
  Post-Emergent herbicidal rating, C Velvetleaf: 1 (25-49)
